One test concerns HSV2 clinical isolates. It counts as cell-based, herpes simplex virus type 2. As to the method: (§1) Vero cells were seeded at 125,000 cells per well in 10% EMEM, and were incubated overnight resulting in confluent monolayers. Peptides were diluted in 0.5% EMEM to give 2× final desired concentration, and 100 μl aliquots were arranged on 96-well plates in arrangement to be used for 24-well plate; control wells containing normal 0.5% EMEM were also prepared. Virus stocks (p3) were thawed, and diluted in 0.5% EMEM such that there were around 100 pfu in 100 μl. Each 24-well plate was inoculated separately. Firstly 100 μl of virus stock was added to the peptide or control medium arranged on a 96-well plate. This was incubated at 37° C. for ten minutes before inoculation. Medium was removed from four wells of a 24-well plate containing confluent Vero, and the 200 μl inoculum added to the appropriate well. Once all wells were treated, the 24-well plate was incubated for a further 60-80 minutes. Finally the peptide-containing inoculum was removed, and 1 ml of 1% EMEM containing 1% carboxymethylcellulose was added to each well. Plates were incubated for a further 22 hours, before removal of overlay, and addition of 10% formaldehyde in PBS. After a further one hour incubation, fixative was removed, monolayers washed several times with tap water, and stained with carbol fuchsin solubilised in water. After 30 minutes stain was removed, and plates washed several times with tap water, before being air dried. Plaques were counted using an Olympus IX70 Inverting Microscope, and antiviral effect expressed as a percentage of the control value for each peptide concentration. The IC50 was calculated from plots of inhibitory effect against peptide concentration.
Plaque assays were performed. The methodology was as described in previous Examples for HSV1 plaque assays (including usage of Vero cells) except HSV2 clinical isolates (provided by Prof. Anthony Hart of Liverpool University) were employed instead.

The test system of the next test is HSV1. It counts as cell-based, herpes simplex virus type 1. The conditions noted are these: HSV1 plaque assay, Vero cells. As to the method: African Green Monkey Kidney (Vero) cells were maintained in Eagle's minimum essential medium with Earle's salt (EMEM) and supplemented with 10% foetal calf serum (heat-inactivated), 4 mM L-glutamine, and 1% (v/v) nonessential amino acids, plus penicillin and streptomycin (100 IU/ml and 100 μg/ml, respectively) (maintenance medium referred to as 10% EMEM). The cells were incubated at 37° C. in a humidified atmosphere of air with 5% CO2.
On harvesting, monolayers were washed in phosphate-buffered saline (PBS), and dislodged by incubating with trypsin in PBS for 30 min, before inactivating trypsin by addition of an equal volume of 10% EMEM and centrifuging at 500 g (5 min, 4° C.). Cell pellets were resuspended in 10% EMEM, prior to cell counting and seeding of 24-well plates. For antiviral assays, medium containing only 0.5% FCS was used (referred to as 0.5% EMEM).
Three separate passages of HSV1 virus were prepared by infecting Vero cells, and preparing semi-pure suspensions of virus from tissue culture supernatant and cell lysates, before freezing aliquots of virus at −85° C. Viral infectivity was assessed by carrying out plaque assays on serial dilutions of thawed aliquots (expressed in pfu/ml).
Peptides were obtained in lyophilised form from a commercial supplier (AltaBioscience, University of Birmingham or Advanced Biomedical), and were produced at 5 micromole scale. N-terminals were protected by addition of an acetyl group, and the C-terminals were protected by addition of an amide group.
Small quantities of peptide were weighed in sterile Eppendorf tubes, before addition of sufficient 0.5% EMEM to produce a 1.5 mM stock solution, which was frozen at −20° C. in aliquots.
as §1
The methods employed were as described in Examples 1-4 expect peptides were prepared as 400 μM stocks in phosphate buffered saline (PBS).

Another test relates to HIV isolate SF162. Briefly: HIV-1 infectious foci in NP2 glioma cells over-expressing CD4 and CCR5. The format is cell-based. The note with it: HIV isolate SF162, NP-2 glioma cells overexpressing CCR5, 0.1 to 10 micromolar. As to the method: Similar experiments to those described in Example 2 were conducted to test the efficacy of the peptides according to the invention against HIV infection. The glioma cell line NP2 over-expressing both CD4 and the appropriate co-receptor (CCR5 or CXCR4) were maintained in DMEM supplemented with 10% FCS. 2×10^4 cells were plated per well of a 48-well plate 24 h prior to infection and grown at 37 C. The cells were then washed, and incubated in DMEM/FCS containing peptide concentrations ranging from 0.1 to 10 micromolar, at 37 C for 30 minutes. 200 focus-forming units of HIV-1 stocks were then added to each well, and the cells incubated at 37 C for a further 2 hours. The cells were then washed twice in PBS and fresh medium replaced. After 3 day's growth the cells were fixed in cold methanol:acetone, and stained in situ for expression of HIV-1 p24 using a monoclonal anti-p24 followed by a secondary anti-mouse beta-galactosidase conjugate. Expression was visualised by X-Gal staining and infectious foci enumerated by light-microscopy.

On to “Ac-WRWRKRWRKWRWRKRWRK-NH2 (N-terminus and C-terminus assumed) [GIN 33]”, for which, in the test on HSV2 clinical isolates, the IC50 stood at 10 µM. In the test with HSV1, the “antiviral activity against HSV1 (in words)” value was “have antiviral activity”. In addition, the “anti-HIV action (in words)” value with HIV isolate SF162 was “anti-HIV action”.

The values above are taken from patent US8017579B2, “Treatment of viral infections” (priority 2003, dated 2011).
